Consider 29 compounds from US20150065499A1, “3-AMINOTHIENO[3,2-c]QUINOLINE DERIVATIVES, METHODS OF PREPARATION AND USES” (TEMPLE UNIVERSITY - OF THE COMMONWEALTH SYSTEM OF HIGHER …, priority 2012, published 2015).

pIC50: −log10 of the molar value. Counter-ions that a name gives are not always drawn.

For data set [1], the system named is K562 (chronic myelogenous leukemia; leukemia cell line +ve for Bcr-Abl). Description: Cancer cell assay, K562 tumor cells, viable cells after 96 hours. It is filed as cell-based. Particulars: 96 hours after treatment, called IC50. As for the experimental part:
(§1) The effect of the compounds of the invention on tumor cells was determined by the assay described by Latham et al., Oncogene 12:827-837 (1996). Tumor cells K562 (chronic myelogenous leukemia; leukemia cell line +ve for Bcr-Abl) or DU145 (prostate cancer) were plated in 12-well dishes at a cell density of 2.5×10^4 cells well. The plated cells were treated 24 hours later with a compound of the invention dissolved in DMSO at multiple concentrations ranging from 0.01 μM to 100 μM. The plates were examined 96 hours later under an inverted microscope, Olympus CK-2 using a 10× objective, and compound activity was noted by physical observation. When necessary, the total number of viable cells was determined by trypsinizing the wells and counting the number of viable cells, as determined by trypan blue exclusion, using a hemacytometer.

In the next data set the test system is DU145 (prostate cancer). The data set is described as follows: Cancer cell assay, DU145 tumor cells, viable cells after 96 hours. It is filed as cell-based. The note with it: Homo sapiens, DU-145, 96 hours after treatment, called IC50. As for the experimental part:
as §1

A word on the melting point: it is the temperature, or range, at which the solid turns liquid. By pIC50 is commonly meant the IC50 on a negative log10 scale, so that one unit is a factor of ten. High values mean a small IC50, low ones a large IC50. Take `COC(=O)c1sc2c(cnc3cc(OC)c(OC)cc32)c1/N=C/N(C)C` [Example 32, (E)-methyl 3-(((dimethylamino)methylene)amino)-7,8-dimethoxythieno[3,2-c]quinoline-2-carboxylate]: the melting point is 173 to 175 °C. The same compound gave a pIC50 in data set [1] (Homo sapiens) of 4.60 to 5.00. Besides, in the data set on DU145 (prostate cancer), the pIC50 is 4.60 to 5.00.

Compound `N#Cc1sc2c(cnc3cc(F)c(F)cc32)c1N` [Example 38, 3-Amino-7,8-difluorothieno[3,2-c]quinoline-2-carbonitrile] gave a melting point of 300 to 301 °C. Also, in data set [1] (Homo sapiens), the negative logarithm of the IC50 (pIC50) is 4.60. This compound also had a pIC50 in the data set on DU145 (prostate cancer) of 4.60.

For `COC(=O)c1sc2c(cnc3cc(OC)c(OC)cc32)c1NC(=O)c1ccc(OC)cc1` [Example 16, Methyl 7,8-dimethoxy-3-(4-methoxybenzamido)thieno[3,2-c]quinoline-2-carboxylate], the melting point is 255 to 258 °C. For the same compound, the pIC50 in data set [1] (Homo sapiens) was over 6.00. For the same compound, the negative logarithm of the IC50 (pIC50) in the data set with DU145 (prostate cancer) is over 6.00.

Consider `COC(=O)c1sc2c(cnc3cc(OC)c(O)cc32)c1N` [Example 10, Methyl 3-amino-8-hydroxy-7-methoxythieno[3,2-c]quinoline-2-carboxylate], for which the melting point lay within 277 to 280 °C. Further, the negative logarithm of the IC50 (pIC50) in data set [1] (Homo sapiens) was under 4.00. The pIC50 in the data set with DU145 (prostate cancer) is under 4.00.

Consider `COC(=O)c1sc2c(cnc3ccc(F)cc32)c1N` [Example 34, Methyl 3-amino-8-fluorothieno[3,2-c]quinoline-2-carboxylate], for which the melting point was in the range of 270 to 272 °C. This compound also had a pIC50 in data set [1] (Homo sapiens) of 5.00. In the data set on DU145 (prostate cancer), this compound showed a negative-log IC50 (pIC50) of 5.00.

Regarding `COC(=O)c1sc2c(cnc3cc(OC)c(OC)cc32)c1NC(=O)C(F)(F)F` [Example 23, Methyl 7,8-dimethoxy-3-(2,2,2-trifluoroacetamido)thieno[3,2-c]quinoline-2-carboxylate], the melting point lay in the range of 224 to 230 °C. Besides, the pIC50 in data set [1] (Homo sapiens) is 6.70. In addition, the pIC50 in the data set with DU145 (prostate cancer) is 6.12.

`COC(=O)c1sc2c(cnc3cc(OCCN4CCOCC4)c(OC)cc32)c1N` [Example 14, Methyl 3-amino-8-methoxy-7-(2-morpholinoethoxy)thieno[3,2-c]quinoline-2-carboxylate] displayed a melting point of 158 to 160 °C. Moreover, in data set [1] (Homo sapiens), the pIC50 is 4.60 to 5.00. The compound further gave a pIC50 in the data set with DU145 (prostate cancer) of 4.60 to 5.00.

As for `COc1cc2ncc3c(N)c(C(=O)C(F)(F)F)sc3c2cc1OC` [Example 5, 1-(3-Amino-7,8-dimethoxythieno[3,2-c]quinolin-2-yl)-2,2,2-trifluoroethanone], the melting point lay within 230 to 234 °C. The same compound gave a pIC50 in data set [1] (Homo sapiens) of 5.00 to 6.00. Further, the pIC50 in the data set with DU145 (prostate cancer) is under 5.00.

Compound `COC(=O)c1sc2c(cnc3cc(OC(=O)N4CCN(C)CC4)c(OC)cc32)c1N` [Example 13, Methyl 3-amino-8-methoxy-7-[(4-methylpiperazine-1-carbonyl)oxy]thieno[3,2-c]quinoline-2-carboxylate] yielded a melting point of 147 to 150 °C. In data set [1] (Homo sapiens), this compound had a pIC50 of 4.60 to 5.00. For the same compound, the pIC50 in the data set on DU145 (prostate cancer) was 4.60 to 5.00.

`COC(=O)c1sc2c(cnc3cc(OC)c(OC)cc32)c1N` [Example 1, Methyl 3-amino-7,8-dimethoxythieno[3,2-c]quinolone-2-carboxylate] returned a melting point of 260 to 262 °C. This compound gave a pIC50 in data set [1] (Homo sapiens) of 6.82. This compound also gave a negative logarithm of the IC50 (pIC50) with DU145 (prostate cancer) of 6.22.

`COC(=O)c1sc2c(cnc3cc(OC)c(OC)cc32)c1NC(=O)c1ccccc1[N+](=O)[O-]` [Example 20, Methyl 7,8-dimethoxy-3-(2-nitrobenzamido)thieno[3,2-c]quinoline-2-carboxylate]: the melting point is 178 to 181 °C. In addition, the pIC50 in data set [1] (Homo sapiens) was 5.52. Further, the pIC50 with DU145 (prostate cancer) is 4.60.

`Nc1c(C(=O)c2ccc(F)cc2)sc2c1cnc1cc(F)c(F)cc12` [Example 39, (3-Amino-7,8-difluorothieno[3,2-c]quinolin-2-yl)(4-fluorophenyl)methanone] had a melting point of over 320 °C. In data set [1] (Homo sapiens), this compound showed a pIC50 of 4.12. For the same compound, the negative logarithm of the IC50 (pIC50) with DU145 (prostate cancer) is 4.12.

Take `COC(=O)C[n+]1cc2c(N)c(C(=O)OC)sc2c2cc(OC)c(OC)cc21` [Example 31, 3-amino-7,8-dimethoxy-5-(2-methoxy-2-oxoethyl)-2-(methoxycarbonyl)thieno[3,2-c]quinolin-5-ium bromide]: the pIC50 was 4.00 to 4.30 in data set [1] (Homo sapiens) and under 4.00 in the data set with DU145 (prostate cancer).

As for `COC(=O)c1sc2c(cnc3cc(OC)c(OC)cc32)c1NC(=O)C(=O)N1CCOCC1` [Example 26, Methyl 7,8-dimethoxy-3-(2-morpholino-2-oxoacetamido)thieno[3,2-c]quinoline-2-carboxylate], the melting point is 232 to 234 °C. Further, the pIC50 in data set [1] (Homo sapiens) is 4.00 to 4.30. The compound further had a pIC50 in the data set with DU145 (prostate cancer) of 4.30 to 4.60.

For `COC(=O)c1sc2c(c[n+](C)c3cc(OC)c(OC)cc23)c1N` [Example 30, 3-amino-7,8-dimethoxy-2-(methoxycarbonyl)-5-methylthieno[3,2-c]quinolin-5-ium iodide], the figures for the negative logarithm of the IC50 (pIC50) (in data set [1] (Homo sapiens); in the data set with DU145 (prostate cancer)) were 5.00 to 5.30 and under 5.00, respectively.

Regarding `COC(=O)c1sc2c(cnc3cc(OC)c(OC)cc32)c1NC(=O)C(=O)N1CCN(c2ccncc2)CC1` [Example 27, Methyl 7,8-dimethoxy-3-{2-oxo-2-[4-(pyridin-4-yl)piperazin-1-yl]acetamido}thieno[3,2-c]quinoline-2-carboxylate], the melting point is 245 to 248 °C. The compound also gave a pIC50 in data set [1] (Homo sapiens) of 5.00 to 6.00. In the data set on DU145 (prostate cancer), the pIC50 is 5.00 to 6.00.

`COC(=O)c1sc2c(cnc3cc(OC)c(OC)cc32)c1NC(=O)C(=O)Nc1ccc(N2CCN(C)CC2)cc1` [Example 28, Methyl 7,8-dimethoxy-3-(2-{[4-(4-methylpiperazin-1-yl)phenyl]amino}-2-oxoacetamido)thieno[3,2-c]quinoline-2-carboxylate] gave a melting point of 240 to 246 °C. In data set [1] (Homo sapiens), the pIC50 is 5.00 to 6.00. The negative logarithm of the IC50 (pIC50) in the data set with DU145 (prostate cancer) is 4.60 to 5.00.

In the case of `COC(=O)c1sc2c(cnc3cc(OC)c(OC)cc32)c1NC(=O)c1ccccc1F` [Example 17, Methyl 3-(2-fluorobenzamido)-7,8-dimethoxythieno[3,2-c]quinoline-2-carboxylate], the melting point was in the range of 237 to 240 °C. The same compound showed a pIC50 in data set [1] (Homo sapiens) of 6.60 to 7.00. For the same compound, the negative-log IC50 (pIC50) in the data set with DU145 (prostate cancer) is 6.00 to 6.30.

For `Nc1c(C(=O)c2ccc(F)cc2)sc2c1cnc1ccc(F)cc12` [Example 37, (3-Amino-8-fluorothieno[3,2-c]quinolin-2-yl)(4-fluorophenyl)methanone], the melting point fell in the range of 276 to 278 °C. In data set [1] (Homo sapiens), this compound had a negative logarithm of the IC50 (pIC50) of 6.82. The same compound gave a negative logarithm of the IC50 (pIC50) in the data set on DU145 (prostate cancer) of 5.30.

Turning to `COc1cc2ncc3c(N)c(-c4nnn[nH]4)sc3c2cc1OC` [Example 33, 7,8-dimethoxy-2-(1H-tetrazol-5-yl)thieno[3,2-e]quinolin-3-amine], the melting point is 252 to 255 °C. Also, in data set [1] (Homo sapiens), the negative logarithm of the IC50 (pIC50) was 4.30 to 4.60. In addition, the pIC50 in the data set on DU145 (prostate cancer) was 4.00 to 4.30.

In the case of `COC(=O)c1sc2c(cnc3cc(OCCCN4CCOCC4)c(OC)cc32)c1N` [Example 11, Methyl 3-amino-8-methoxy-7-(3-morpholinopropoxy)thieno[3,2-c]quinoline-2-carboxylate], the melting point fell in the range of 117 to 120 °C. This compound gave a negative logarithm of the IC50 (pIC50) in data set [1] (Homo sapiens) of 5.00 to 6.00. Further, in the data set with DU145 (prostate cancer), the negative-log IC50 (pIC50) is 5.00 to 6.00.

Turning to `COC(=O)c1sc2c(cnc3cc(OC)c(OC)cc32)c1NC(=O)C(=O)N1CCN(C)CC1` [Example 25, Methyl 7,8-dimethoxy-3-[2-(4-methylpiperazin-1-yl)-2-oxoacetamido]thieno[3,2-c]quinoline-2-carboxylate], the pIC50 (in data set [1] (Homo sapiens); with DU145 (prostate cancer)) was 5.00 to 6.00 each time.

`COC(=O)c1sc2c(cnc3cc(OC)c(OCCCN4CCOCC4)cc32)c1N` [Example 15, Methyl 3-amino-7-methoxy-8-(3-morpholinopropoxy)thieno[3,2-c]quinoline-2-carboxylate] came in with a melting point of 188 to 190 °C. In data set [1] (Homo sapiens), this compound had a pIC50 of 4.60 to 5.00. In the data set with DU145 (prostate cancer), this compound gave a pIC50 of 4.60 to 5.00.

As for `COC(=O)c1sc2c(cnc3cc(O)c(OC)cc32)c1N` [Example 9, Methyl 3-amino-7-hydroxy-8-methoxythieno[3,2-c]quinoline-2-carboxylate], the melting point was 244 to 246 °C. For the same compound, in data set [1] (Homo sapiens), the pIC50 was 5.00 to 6.00. The compound further gave a pIC50 in the data set with DU145 (prostate cancer) of under 5.00.

`COC(=O)c1sc2c(cnc3cc(F)c(F)cc32)c1N` [Example 35, Methyl 3-amino-7,8-difluorothieno[3,2-c]quinoline-2-carboxylate] showed a melting point of 298 to 300 °C. The same compound showed a pIC50 in data set [1] (Homo sapiens) of 5.00. The compound further gave a negative logarithm of the IC50 (pIC50) with DU145 (prostate cancer) of 5.00.

The compound `COc1ccc(C(=O)c2sc3c(cnc4ccc(F)cc43)c2N)cc1` [Example 41, (3-Amino-8-fluorothieno[3,2-c]quinolin-2-yl)(4-methoxyphenyl)methanone] gave a melting point of 256 to 258 °C. The compound further gave a negative-log IC50 (pIC50) in data set [1] (Homo sapiens) of 6.22. The pIC50 in the data set on DU145 (prostate cancer) is 5.00.

`COC(=O)c1sc2c(cnc3cc(OC)c(OCc4ccccc4)cc32)c1N` [Example 7, Methyl 3-amino-8-benzyloxy-7-methoxythieno[3,2-c]quinoline-2-carboxylate]: the melting point fell in the range of 272 to 274 °C. Further, the pIC50 in data set [1] (Homo sapiens) was under 5.00. In the data set with DU145 (prostate cancer), this compound gave a negative-log IC50 (pIC50) of under 5.00.

Turning to `COC(=O)c1sc2c(c[n+](C)c3cc(OC)c(OC)cc23)c1N` (as salt: iodide) [Example 30, 3-amino-7,8-dimethoxy-2-(methoxycarbonyl)-5-methylthieno[3,2-c]quinolin-5-ium iodide], the melting point lay within 249 to 251 °C.

Turning to “Methyl 7,8-dimethoxy-3-(2-aminobenzamido)thieno[3,2-e]quinoline-2-carboxylate [Example 21]”, the pIC50 in data set [1] is over 6.00.
